Test results from US20100261876A1, “NOVEL METHODS OF […] FOR T[…] PEPTIDES” (priority 2007, published 2010).
Where a SMILES comes first, the peptide text is derived from it.

Assays:
[1] = Stability in aqueous solution (PBS), peptide remaining in solution by HPLC; format: physicochemical; settings: phosphate-buffered saline (PBS), 10 mg/ml in PBS, about pH 7.3 to 7.5, 37° C., read-out: peptide remaining detectable in solution at 1 week
HIV-Res = experiment: Magi-CCR5 infectivity assay, resistant viral isolate; format: cell-based, HIV-1; settings: compared to SEQ ID NO:6 / 7
From the text: Assessment of biological properties included measurement of antiviral activity against HIV-1 strains. In determining antiviral activity (e.g., one measure being the ability to inhibit transmission of HIV to a target cell) of the HIV fusion inhibitor peptides, an in vitro assay which has been shown, by data generated using peptides derived from the HR regions of HIV gp41, to be predictive of antiviral activity observed in vivo was used. […] These assays score for reduction of infectious virus titer employing the indicator cell lines MAGI or the CCR5 expressing derivative cMAGI. Both cell lines exploit the ability of HIV-1 tat to transactivate the expression of a β-galactosidase reporter gene driven by the HIV-LTR. The β-gal reporter has been modified to localize in the nucleus and can be detected with the X-gal substrate as intense nuclear staining within a few days of infection. […] The number of infected cells for each control and peptide dilution was determined with the CCD-imager, and then the IC50 was calculated (expressed in μg/ml).
Viruses resistant to the antiviral activity of a peptide consisting of a base sequence can be produced using standard laboratory methods. […] The cultures are maintained and monitored until syncytia are present. […] The second round of culture is maintained and monitored for presence of virus resistant to the antiviral activity of the peptide. […]

[2] = system: virus isolates (IIIB, 030, 060 and 098); experiment: In vitro resistance selection, geometric mean over isolates; format: cell-based, HIV; settings: compared to SEQ ID NO:2
Procedure: Biological properties of the HIV fusion inhibitor peptides provided herein have been compared with other recognized, effective antiviral agents, including SEQ ID NO: 2 (enfuvirtide). In particular, in vitro resistance comparison studies were performed between the novel SEQ ID NO:9 compound of interest and established antiviral agent SEQ ID NO:2, described in detail as follows: MT2 cells were infected with virus isolates (IIIB, 030, 060 and 098) and cultured in increasing concentrations of SEQ ID NO:2 (enfuvirtide) or SEQ ID NO:9 to select for resistance. The initial peptide concentration was approximately 2 times the IC50 of each peptide against the corresponding wild type isolate. Peptide concentrations were maintained by adding fresh peptide every 1-3 days. Cultures were monitored for cytopathic effect (CPE) using standard techniques and when maximal CPE was achieved, a small aliquot of virus was used for subsequent rounds of infection. Peptide concentrations were increased 2 to 4-fold depending on the length of time in culture when compared to the growth rate of wild type virus. During the course of selection, peptide-free virus stocks were also collected. Peptide-free virus stocks were characterized for gp41 genotypic changes by dideoxy sequencing chemistries and phenotypic susceptibility was determined using a cMAGI infectivity assay.

[3] = Intravenous pharmacokinetics in cynomolgus monkeys; format: in vivo, cynomolgus monkeys (Macaca fasicularis); settings: relative to base sequence SEQ ID NO:5
Procedure: For determining pharmacokinetic properties, an HIV fusion inhibitor peptide or a base sequence from which an HIV fusion inhibitor peptide is derived was dosed intravenously in cynomolgus monkeys (Macaca fasicularis) (other animal models may be used for determining pharmacokinetic properties, as known in the art). At various times post-dose, blood samples were drawn and plasma isolated by centrifugation. Plasma samples were stored frozen until analysis by LC-MS (liquid chromatography/mass spectrometry) in the electrospray, positive-ion mode. An HIV fusion inhibitor or base sequence was eluted from a C18 or C8 HPLC column with a gradient of acetonitrile in a buffer of 10 mM ammonium acetate, pH 6.8. At the time of analysis, plasma samples were deproteinated with either two or three volumes of acetonitrile containing 0.5% formic acid. Duplicate calibration standards in cynomolgus plasma samples were prepared at the same time as the samples and analyzed before and after the samples containing either HIV fusion inhibitor peptide or base sequence. Pharmacokinetic properties were calculated from the plasma concentration-time data using either mono-exponential or bi-exponential mathematical models. Models were derived by non-linear least squares optimization. A 1/C^2 weighting of concentrations was used. […]

| SMILES | remaining at 168 h, 10 mg/ml [1] [%] | resistance profile (activity against the resistant viral isolate Res) (HIV-Res) | barrier to development of resistance in vitro [2] | biological half-life, in words [3] |
| --- | --- | --- | --- | --- |
| CC[C@H](C)[C@H](NC(=O)[C@H](C)NC(=O)[C@H](CCCNC(=N)N)NC(=O)[C@H](CC(=O)O)NC(=O)[C@H](Cc1c[nH]c2ccccc12)NC(=O)[C@H](C)NC(=O)[C@H](CCC(=O)O)NC(=O)[C@H](Cc1c[nH]c2ccccc12)NC(=O)[C@@H](NC(=O)[C@@H](NC(C)=O)[C@@H](C)O)[C@@H](C)O)C(=O)N[C@@H](C)C(=O)N[C@@H](CCC(=O)O)C(=O)N[C@@H](Cc1ccc(O)cc1)C(=O)N[C@@H](C)C(=O)N[C@@H](C)C(=O)N[C@@H](CCCNC(=N)N)C(=O)N[C@H](C(=O)N[C@@H](CCC(=O)O)C(=O)N[C@@H](C)C(=O)N[C@@H](CC(C)C)C(=O)N[C@@H](CC(C)C)C(=O)N[C@@H](CCCNC(=N)N)C(=O)N[C@@H](C)C(=O)N[C@@H](CC(C)C)C(=O)N[C@@H](CCC(N)=O)C(=O)N[C@@H](CCC(=O)O)C(=O)N[C@@H](CCC(N)=O)C(=O)N[C@@H](CCC(N)=O)C(=O)N[C@@H](CCC(=O)O)C(=O)N[C@@H](CCCCN)C(=O)N[C@@H](CC(N)=O)C(=O)N[C@@H](CCC(=O)O)C(=O)N[C@@H](C)C(=O)N[C@@H](C)C(=O)N[C@@H](CC(C)C)C(=O)N[C@@H](CCCNC(=N)N)C(=O)N[C@@H](CCC(=O)O)C(=O)N[C@@H](CC(C)C)C(N)=O)[C@@H](C)CC [compound 9] (Ac-TTWEAWDRAIAEYAARIEALLRALQEQQEKNEAALREL-NH2) | ≥ 90 | good resistance profile | higher barrier to development of resistance | increased biological half-life |
| CC[C@H](C)[C@H](NC(=O)[C@H](C)NC(=O)[C@H](CCCNC(=N)N)NC(=O)[C@H](CC(=O)O)NC(=O)[C@H](Cc1c[nH]c2ccccc12)NC(=O)[C@H](C)NC(=O)[C@H](CCC(=O)O)NC(=O)[C@H](Cc1c[nH]c2ccccc12)NC(=O)[C@@H](NC(=O)[C@@H](NC(C)=O)[C@@H](C)O)[C@@H](C)O)C(=O)N[C@@H](C)C(=O)N[C@@H](CCC(=O)O)C(=O)N[C@@H](Cc1ccc(O)cc1)C(=O)N[C@@H](C)C(=O)N[C@@H](C)C(=O)N[C@@H](CCCNC(=N)N)C(=O)N[C@H](C(=O)N[C@@H](CCC(=O)O)C(=O)N[C@@H](C)C(=O)N[C@@H](CC(C)C)C(=O)N[C@@H](CC(C)C)C(=O)N[C@@H](CCCNC(=N)N)C(=O)N[C@@H](C)C(=O)N[C@@H](C)C(=O)N[C@@H](CCC(N)=O)C(=O)N[C@@H](CCC(=O)O)C(=O)N[C@@H](CCC(N)=O)C(=O)N[C@@H](CCC(N)=O)C(=O)N[C@@H](CCC(=O)O)C(=O)N[C@@H](CCCCN)C(=O)N[C@@H](CC(C)C)C(=O)N[C@@H](CCC(=O)O)C(=O)N[C@@H](C)C(=O)N[C@@H](C)C(=O)N[C@@H](CC(C)C)C(=O)N[C@@H](CCCNC(=N)N)C(=O)N[C@@H](CCC(=O)O)C(=O)N[C@@H](CC(C)C)C(N)=O)[C@@H](C)CC [compound 10] (Ac-TTWEAWDRAIAEYAARIEALLRAAQEQQEKLEAALREL-NH2) |  | good resistance profile |  | increased biological half-life |
